Values quoted from earlier work in article PMC4207555 (Drug Design, Development and Therapy, 2014).
Read-outs that look alike come from different tables or passages of the source.

Experiments:
[1] = tested on: plasma protein; conditions: humans; ref Sanofi, data on file, 2010
[2] = humans
[3] = dogs
[4] = tested on: P-glycoprotein-expressing cell lines bearing acquired resistance; conditions: range across P-glycoprotein-expressing cell lines
[5] = tested on: pediatric sarcoma xenograft; conditions: five of six models
[6] = rats, ref Sanofi, data on file, 2010
[7] = tested on: tubulin
[8] = not given; remark: listed apart in the source
[9] = tested on: Prostate DU 145; conditions: DU145 xenograft
[10] = tested on: Breast Calc18/TXT; conditions: P-glycoprotein-overexpressing Calc18/TXT
[11] = mice
[12] = tested on: microtubules; conditions: read-out: stabilization of microtubules against cold-induced depolymerization (concentration producing 50% cell killing)
[13] = not given; remark: listed apart in the source
[14] = in situ brain perfusion, wild-type mice; ref 47 (unpublished data)
[15] = not given; remark: listed apart in the source
[16] = tested on: plasma protein; conditions: dogs; ref Sanofi, data on file, 2010
[17] = dogs, ref Sanofi, data on file, 2010
[18] = not given; remark: listed apart in the source
[19] = tested on: mCRPC that had progressed on previous docetaxel-based therapy
[20] = dogs; ref Sanofi, data on file, 2013
[21] = tested on: P-glycoprotein
[22] = tested on: Breast UISO BCA-1; conditions: UISO BCA-1, dose level below HNTD (9.3 mg/kg per injection)
[23] = rats, ref Sanofi, data on file
[24] = tested on: cell lines with resistance mechanisms other than P-glycoprotein overexpression
[25] = tested on: plasma protein; conditions: rabbits; ref Sanofi, data on file, 2010
[26] = tested on: HID28; conditions: HID28, 20 mg/kg
[27] = tested on: plasma protein; conditions: rats; ref Sanofi, data on file, 2010
[28] = tested on: bacterial reverse mutation; conditions: ref Sanofi, data on file, 2010
[29] = ref Sanofi, data on file, 2010
[30] = tested on: B16/TXT melanoma; conditions: B16/TXT acquired-resistance model, no P-glycoprotein overexpression
[31] = single-dose studies in mice, rats, and dogs; ref Sanofi, data on file, 2013
[32] = male or female rats; ref Sanofi, data on file, 2010
[33] = ref Sanofi, data on file, 2010; remark: listed apart in the source
[34] = mice, ref Sanofi, data on file; for NOEL for central neurotoxicity / NOEL for peripheral neurotoxicity: 2010
[35] = after IV administration; ref Sanofi, data on file, 2010
[36] = tested on: plasma protein; conditions: mice; ref Sanofi, data on file, 2010
[37] = tested on: human intracranial glioblastoma xenograft; conditions: two models, respective HNTDs
[38] = tested on: bone marrow; conditions: ref Sanofi, data on file, 2010
[39] = 0–48 hours, mice bearing subcutaneous MA16/C

CO[C@H]1C(=O)[C@]2(C)[C@@H](OC)C[C@H]3OC[C@@]3(OC(C)=O)[C@H]2[C@H](OC(=O)c2ccccc2)[C@]2(O)C[C@H](OC(=O)[C@H](O)[C@@H](NC(=O)OC(C)(C)C)c3ccccc3)C(C)=C1C2(C)C [Cabazitaxel]
Plasma protein binding [1]: 91.9%
pathway C (t-butyl-hydroxylation on the lateral chain), share of the dose [2]: 21%
two O-demethylation pathways (A and B), share of the dose excreted [2]: 40%
two O-demethylation pathways (A and B), share of the dose excreted [3]: 54%
Resistance factors [4]: 2–10
tumor growth inhibition and tumor regression versus equivalent doses of docetaxel [5]: significantly greater tumor growth inhibition and tumor regression
volume of distribution at steady state ([6]; single IV administration): 22.7 L/kg
Plasma clearance ([6]; single IV infusion): 80 mL/min/kg
terminal half-life [6]: 10 h
population half-life, initial phase (170 patients): 4.4 min
population half-life, intermediate phase (170 patients): 1.6 h
population half-life, terminal phase (170 patients): 95.1 h
mean volume of distribution at steady state (population PK estimate) (median BSA 1.84 m^2): 2,640 L/m^2
plasma clearance (population PK estimate) (median BSA 1.84 m^2): 26.4 L/h/m^2
lag time to 50% aggregation (reduction in lag time for tubulin assembly) [7]: 0 to 0.1 µmol/L
radioactivity excreted via the biliary route, % of the administered dose ([8]; bile-duct-cannulated male rats, within 48 hours): 65%
pathway C (t-butyl-hydroxylation on the lateral chain), share of the dose excreted ([8]; male and female rats): 49%–55
complete tumor regressions (CR) [9]: 100%
long-term tumor-free survival (TFS) [9]: 83%
antitumor activity [10]: not active
pathway C (t-butyl-hydroxylation on the lateral chain), share of the dose [11]: 41%
two O-demethylation pathways (A and B), share of the dose excreted [11]: 45%
IC50 [12]: 100 to 250 nM
overall brain exposure relative to plasma [13, 39]: 3.7 fold
overall brain exposure relative to tumor tissue [13, 39]: 2.3 fold
time to maximum drug concentrations in tumor tissue ([13]; MA16/C-bearing mice, 40 mg/kg): ≤ 15 min
concentration within the tumor versus plasma ([13]; after 48 hours, MA16/C-bearing mice, 40 mg/kg): 40 fold
exposure in tumor compared with plasma ([13]; during the 48 hours following administration, 40 mg/kg): 1.6 times
exposure in tumor compared with plasma ([13]; entire experimental period (168 hours), 40 mg/kg): 2.9 times
volume of distribution at steady state ([13]; tumor-bearing mice, single IV administration, ref Sanofi, data on file, 2010): 8.8 L/kg
Plasma clearance ([13]; tumor-bearing mice, single IV infusion, ref Sanofi, data on file, 2010): 28.3 mL/min/kg
terminal half-life ([13]; tumor-bearing mice, ref Sanofi, data on file, 2010): 26 h
brain penetration versus paclitaxel or docetaxel [14]: two- to threefold greater
pathway D (cleavage of the parent drug), share of the dose ([15]; all species including humans): < 0.3%
excretion via the urinary route ([15]; mice, rats, and dogs): 1%–4
excretion, % of the administered dose ([15]; mice, rats, and dogs): 91%–95
radioactivity excreted in the feces, % of the administered dose ([15]; mice, rats, and dogs): 87%–91
administered dose excreted unchanged ([15]; mice, rats, dogs, and humans): less than 2.5%
Plasma protein binding [16]: 97.1%
volume of distribution at steady state ([17]; single IV administration): 3.3 to 14.5 L/kg
Plasma clearance ([17]; single IV infusion): 41.7 to 88.3 mL/min/kg
terminal half-life [17]: 3.0 to 4.3 h
logP [18]: 3.9
grade ≥3 anemia, patients [19]: 11%
grade ≥3 diarrhea [19]: 6%
grade ≥3 leukopenia, patients [19]: 68%
grade ≥3 neutropenia, patients [19]: 82%
patients who died within 30 days of the last infusion [19]: 5%
patients with dose reduction [19]: 12%
patients with treatment delay [19]: 28%
peripheral neuropathy, patients [19]: 14%
prostate-specific antigen response [19]: 39.2%
rate of objective tumor response [19]: 14.4%
median overall survival ([19]; plus prednisone/prednisolone): 15.1 months
median progression-free survival ([19]; plus prednisone/prednisolone): 2.8 months
grade 3 peripheral neuropathy, patients ([19]; three patients): 1%
hazard ratio, death ([19]; versus mitoxantrone): 0.70
hazard ratio, progression-free survival ([19]; versus mitoxantrone): 0.74
reduction in the risk of death ([19]; versus mitoxantrone): 30%
HNLD as single dose [20]: 0.5 mg/kg
uptake across the BBB, P-glycoprotein-deficient versus control mice [21]: threefold higher
log cell kill [22]: 4.4
NOEL for central neurotoxicity ([23]; single-dose, 1 min infusion, 2010): >10 mg/kg/day
NOEL for central neurotoxicity ([23]; ten-cycle, 1 hr infusion, 2010): >10/20
NOEL for peripheral neurotoxicity ([23]; ten-cycle, 1 hr infusion, 2010): <1 mg/kg/day
HNLD as single dose [23]; 2013: 2.5 mg/kg
cross-resistance [24]: no cross-resistance
Plasma protein binding [25]: 91.4%
partial remissions [26]: four out of ten
percentage tumor volume change (treated/control mean tumor volume) ([26]; Day 35): 1.4%
Plasma protein binding [27]: 95.5%
mutations in the bacterial reverse mutation (Ames) test [28]: did not induce mutations
volume of distribution at steady state ([29]; healthy mice, single IV administration): 2.5 to 3.7 L/kg
Plasma clearance ([29]; normal mice, single IV infusion): 15 to 18.3 mL/min/kg
terminal half-life ([29]; normal mice): 5.1 to 7.6 h
antitumor activity [30]: demonstrated antitumor activity
highest non-lethal doses, times lower with cabazitaxel than with docetaxel [31]: 3- to 4 times
mating performance or fertility [32]: did not affect
in vitro chromosome aberration test [33]: increased number of polyploid cells
NOEL for central neurotoxicity ([34]; 5-day, 1 min infusion): >7 mg/kg/day
NOEL for peripheral neurotoxicity ([34]; 5-day, 1 min infusion): 3 mg/kg/day
NOEL for central neurotoxicity ([34]; five-cycle, 1 hr infusion): 10 mg/kg/day
NOEL for peripheral neurotoxicity ([34]; five-cycle, 1 hr infusion): 5 mg/kg/day
NOEL for central neurotoxicity ([34]; single-dose, 1 min infusion): 10 mg/kg/day
NOEL for peripheral neurotoxicity ([34]; single-dose, 1 min infusion): 10 mg/kg/day
NOEL for central neurotoxicity ([34]; single-dose, 1 hr infusion): 10 mg/kg/day
NOEL for central neurotoxicity ([34]; weekly, 1 min infusion): 5 mg/kg/day
NOEL for peripheral neurotoxicity ([34]; weekly, 1 min infusion): 5 mg/kg/day
HNLD as single dose [34]; 2013: 30 mg/kg
effects in CNS, respiratory, gastrointestinal, renal, and cardiovascular systems [35]: no physiologically relevant effects
Plasma protein binding [36]: 99.3%
antitumor activity (increase in life span) versus docetaxel [37]: enhanced antitumor activity compared with docetaxel
in vivo rat bone marrow micronucleus test [38]: increase in micronuclei
